The values below come from BindingDB's records for doi:10.1016/j.ejmech.2019.111626 (University of Illinois At Chicago, 2019).

The target in this assay is 5-hydroxytryptamine receptor 2A (Homo sapiens, UniProt P28223). Kind of assay: Agonist activity at recombinant human 5HT2A receptor expressed in Flp-In-293 cells assessed as increase in calcium influx measured for 300 secs by Fluo-4 dye based FLIPR assay.
Sequence of 5-hydroxytryptamine receptor 2A (P28223 whole entry): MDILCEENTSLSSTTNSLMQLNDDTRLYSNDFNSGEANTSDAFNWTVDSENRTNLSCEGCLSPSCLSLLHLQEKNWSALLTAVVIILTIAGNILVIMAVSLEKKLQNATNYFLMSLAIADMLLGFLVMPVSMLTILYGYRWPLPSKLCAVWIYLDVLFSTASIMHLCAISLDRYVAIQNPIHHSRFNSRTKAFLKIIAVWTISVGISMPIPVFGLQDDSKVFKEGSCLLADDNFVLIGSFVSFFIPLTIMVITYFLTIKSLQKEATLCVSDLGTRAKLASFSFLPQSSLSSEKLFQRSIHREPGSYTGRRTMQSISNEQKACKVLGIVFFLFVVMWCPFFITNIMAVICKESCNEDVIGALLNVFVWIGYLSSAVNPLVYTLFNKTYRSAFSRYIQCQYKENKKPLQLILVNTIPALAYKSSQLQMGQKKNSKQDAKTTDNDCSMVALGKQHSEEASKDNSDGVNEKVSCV

Consider `NC[C@H]1C[C@]1(F)c1cccc(F)c1`, for which the 50% effective concentration (EC50) worked out at 2.69 nM.

What is called EC50 is the midpoint of the concentration-response curve.
